# Laboratory results from ChEMBL document CHEMBL1201862, “PubChem BioAssay data set” (2004).
# Activity calls are given as the source filed them.
# Biological target: Luciferin 4-monooxygenase (Photinus pyralis, UniProt P08659)
# Experiment: firefly luciferase enzyme inhibitors, dose response, biochemical, luminescence (AID 1891)
# Luciferin 4-monooxygenase, sequence (P08659 whole entry): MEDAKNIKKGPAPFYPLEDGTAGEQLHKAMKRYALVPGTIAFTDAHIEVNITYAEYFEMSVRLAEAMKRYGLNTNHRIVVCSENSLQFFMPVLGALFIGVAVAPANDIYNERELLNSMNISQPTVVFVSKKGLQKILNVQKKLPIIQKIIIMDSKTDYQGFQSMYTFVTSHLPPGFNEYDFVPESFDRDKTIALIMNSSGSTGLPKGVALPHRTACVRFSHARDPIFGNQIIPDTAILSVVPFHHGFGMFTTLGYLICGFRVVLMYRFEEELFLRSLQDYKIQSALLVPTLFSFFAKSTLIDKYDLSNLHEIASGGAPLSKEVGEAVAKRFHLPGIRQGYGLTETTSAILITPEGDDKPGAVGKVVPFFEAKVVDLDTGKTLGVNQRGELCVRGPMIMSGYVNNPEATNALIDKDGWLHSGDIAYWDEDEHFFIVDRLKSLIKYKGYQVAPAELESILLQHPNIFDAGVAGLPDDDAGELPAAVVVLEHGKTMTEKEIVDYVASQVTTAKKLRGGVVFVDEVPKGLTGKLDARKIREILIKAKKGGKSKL
row,SMILES,EC50
1,COn1c(C)c(C(C)=O)c2c3nonc3ccc21,> 112 µM (not active)

# System: not listed separately
# Experiment: Luminescence Cell-Based Dose Confirmation HTS to Identify Inhibitors of Platelet Dense Granule Release. [Related pubchem assays: 1663 (Primary HTS), 1678 (Summary of Project)]
# Assay type: functional
row,SMILES,EC50
1,COn1c(C)c(C(C)=O)c2c3nonc3ccc21,> 112 µM (not active)

# Biological target: T1, Calpain-2 catalytic subunit (Sus scrofa, UniProt P43367)
# T1 sequence (P43367 whole entry): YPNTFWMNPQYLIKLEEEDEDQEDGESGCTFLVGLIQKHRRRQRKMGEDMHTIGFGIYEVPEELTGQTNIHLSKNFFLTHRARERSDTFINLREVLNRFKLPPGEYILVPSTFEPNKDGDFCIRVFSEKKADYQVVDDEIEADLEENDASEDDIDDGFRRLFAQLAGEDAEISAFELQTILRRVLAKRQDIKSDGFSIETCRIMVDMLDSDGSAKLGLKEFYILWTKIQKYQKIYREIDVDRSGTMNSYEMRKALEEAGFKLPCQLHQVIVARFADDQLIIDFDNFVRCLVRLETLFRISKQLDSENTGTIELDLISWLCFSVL
# Experiment: pig calpain II inhibitor potency, dose response, biochemical, fluorogenic peptide substrate (AID 1420)
# Assay type: functional
row,SMILES,IC50
1,CSc1nc(Oc2ccccc2)c2sccc2n1,< 0.4 µM (not active)
2,CC(C)Cn1c(S)nnc1-c1csc(C(C)C)c1,10.8 µM (active)
3,Nn1c(Cc2cccc3ccccc23)nnc1SCc1ccc(Cl)c(Cl)c1,< 0.4 µM (not active)
4,Cc1cc2cc(CN=C(S)NC3CCCCC3)ccc2[nH]1,34.6 µM (not active)
5,CCc1ccc(NC(=O)c2noc(C(C)C)c2[N+](=O)[O-])cc1,6.83 µM (not active)
6,O=C(CCCCCN1C(=O)c2ccccc2C1=O)Nc1ccc(F)cc1,11.1 µM (not active)
7,O=C1OC(c2cccc([N+](=O)[O-])c2)C2(CCCC2)C(=O)C12CCCCC2 (configuration not stated),> 50 µM (not active)
8,O=C(Nc1cccc2ccccc12)/C(Cl)=C/c1ccccc1,8.93 µM (not active)
9,CCOc1ccc(CC(=O)OCn2nnc3ccccc3c2=O)cc1,24.4 µM (not active)
10,Cc1ccc2cc(CCNC(=O)c3cc4ccccc4o3)c(O)nc2c1C,> 50 µM (not active)
11,COc1ccc(-c2cc(C(=O)N3CCCc4ccccc43)no2)cc1,13.4 µM (not active)
12,CCN1/C(=C\C=C2\C(=O)N(c3ccccc3)C(=S)N2C)Sc2ccccc21,> 50 µM (not active)
13,CCC(C)C(NC(=O)c1ccc(Cl)cc1)C(=O)Nc1cccnc1 (configuration not stated),7.69 µM (not active)

# Biological target: Fatty acid synthase (Homo sapiens, UniProt P49327)
# Sequence (P49327 whole entry, the tested form may be a part): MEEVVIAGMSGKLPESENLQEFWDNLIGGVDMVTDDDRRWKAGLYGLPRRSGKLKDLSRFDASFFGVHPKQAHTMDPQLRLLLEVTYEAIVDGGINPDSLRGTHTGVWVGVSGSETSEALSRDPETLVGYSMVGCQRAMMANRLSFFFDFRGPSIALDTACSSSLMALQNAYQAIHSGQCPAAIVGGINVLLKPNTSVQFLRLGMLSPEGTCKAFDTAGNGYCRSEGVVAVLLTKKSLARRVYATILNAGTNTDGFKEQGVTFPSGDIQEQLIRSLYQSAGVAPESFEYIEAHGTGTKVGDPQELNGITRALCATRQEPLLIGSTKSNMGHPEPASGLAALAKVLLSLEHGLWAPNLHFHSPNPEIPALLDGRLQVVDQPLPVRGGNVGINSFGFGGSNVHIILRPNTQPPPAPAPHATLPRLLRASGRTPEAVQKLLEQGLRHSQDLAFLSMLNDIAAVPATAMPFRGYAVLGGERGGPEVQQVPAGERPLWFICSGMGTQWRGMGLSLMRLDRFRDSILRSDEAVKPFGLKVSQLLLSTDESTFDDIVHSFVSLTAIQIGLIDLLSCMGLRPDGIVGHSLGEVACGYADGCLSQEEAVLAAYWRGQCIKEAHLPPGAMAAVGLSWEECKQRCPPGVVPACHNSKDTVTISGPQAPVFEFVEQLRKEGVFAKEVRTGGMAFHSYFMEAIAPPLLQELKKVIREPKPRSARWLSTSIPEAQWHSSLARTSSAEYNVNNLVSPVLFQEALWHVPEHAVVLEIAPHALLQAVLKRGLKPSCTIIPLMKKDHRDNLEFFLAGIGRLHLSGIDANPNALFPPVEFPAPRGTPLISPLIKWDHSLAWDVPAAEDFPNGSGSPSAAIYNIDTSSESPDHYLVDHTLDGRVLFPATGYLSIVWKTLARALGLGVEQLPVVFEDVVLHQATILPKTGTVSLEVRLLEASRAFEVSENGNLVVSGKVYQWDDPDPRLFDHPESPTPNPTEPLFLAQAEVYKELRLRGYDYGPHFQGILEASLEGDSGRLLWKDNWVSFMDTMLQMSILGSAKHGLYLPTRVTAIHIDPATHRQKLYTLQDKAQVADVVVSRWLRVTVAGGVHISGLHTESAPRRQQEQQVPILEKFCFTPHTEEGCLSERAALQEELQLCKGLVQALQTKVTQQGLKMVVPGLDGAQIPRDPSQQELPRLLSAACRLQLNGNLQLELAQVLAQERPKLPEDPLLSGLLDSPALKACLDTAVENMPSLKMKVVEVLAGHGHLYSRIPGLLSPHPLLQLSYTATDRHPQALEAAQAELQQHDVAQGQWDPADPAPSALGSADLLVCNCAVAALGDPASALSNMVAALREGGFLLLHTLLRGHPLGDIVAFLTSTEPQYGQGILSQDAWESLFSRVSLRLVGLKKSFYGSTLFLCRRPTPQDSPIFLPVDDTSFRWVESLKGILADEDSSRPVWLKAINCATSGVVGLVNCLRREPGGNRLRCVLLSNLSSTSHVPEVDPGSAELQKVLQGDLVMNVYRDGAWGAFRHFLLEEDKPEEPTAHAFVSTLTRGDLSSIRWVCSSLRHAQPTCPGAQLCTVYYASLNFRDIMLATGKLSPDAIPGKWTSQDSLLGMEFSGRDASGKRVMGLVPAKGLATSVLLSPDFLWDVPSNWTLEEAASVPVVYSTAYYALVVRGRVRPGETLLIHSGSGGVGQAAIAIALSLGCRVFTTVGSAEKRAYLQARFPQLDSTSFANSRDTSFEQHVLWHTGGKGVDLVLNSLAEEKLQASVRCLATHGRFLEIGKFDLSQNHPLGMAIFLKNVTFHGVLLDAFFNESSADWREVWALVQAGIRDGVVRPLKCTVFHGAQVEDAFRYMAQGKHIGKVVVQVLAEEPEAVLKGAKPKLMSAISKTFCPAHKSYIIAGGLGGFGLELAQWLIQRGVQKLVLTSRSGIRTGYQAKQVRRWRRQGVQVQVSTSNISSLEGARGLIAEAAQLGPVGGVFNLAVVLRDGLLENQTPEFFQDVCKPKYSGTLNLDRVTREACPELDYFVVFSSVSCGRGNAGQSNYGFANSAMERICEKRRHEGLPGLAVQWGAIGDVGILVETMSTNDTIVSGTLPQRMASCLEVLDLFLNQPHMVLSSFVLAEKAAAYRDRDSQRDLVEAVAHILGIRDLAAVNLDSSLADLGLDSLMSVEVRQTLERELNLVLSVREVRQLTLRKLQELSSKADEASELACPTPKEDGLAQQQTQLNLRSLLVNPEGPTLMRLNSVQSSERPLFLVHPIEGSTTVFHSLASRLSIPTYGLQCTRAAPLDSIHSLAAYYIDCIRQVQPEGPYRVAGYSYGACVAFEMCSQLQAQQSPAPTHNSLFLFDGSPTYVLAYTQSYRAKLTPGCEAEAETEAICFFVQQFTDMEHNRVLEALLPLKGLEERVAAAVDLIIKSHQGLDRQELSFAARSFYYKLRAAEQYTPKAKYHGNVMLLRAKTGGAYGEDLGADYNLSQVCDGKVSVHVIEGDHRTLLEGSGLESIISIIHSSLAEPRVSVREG
# Experiment: FAS thioesterase domain inhibitors, dose response, biochemical, kinetic fluorescence intensity (AID 624326);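 also: rate of fluorescence rise from hydrolysis of a fluorogenic O-methyl fluorescein ester substrate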
# Assay type: functional
row,SMILES,IC50
1,CNS(=O)(=O)c1ccc2c(c1)C(=O)c1cc(S(=O)(=O)NC)ccc1CC2,0.865 µM (active)

# System: not listed separately
# Experiment: inhibitors of HIV Env-driven cell fusion, dose response, cherry-pick (AID 652057)
# Assay type: functional, cell-based
row,SMILES,AC50
1,C[C@H]1CN([C@@H](C)CO)S(=O)(=O)c2ccc(Br)cc2O[C@H]1CN(C)S(=O)(=O)c1ccc(F)cc1,2.84 µM (active)
2,CC1(C(=O)NCc2ccc3c(c2)OCO3)CCN1Cc1csc2ccccc12 (configuration not stated),43 µM (active)
3,CO[C@H]1CN(C)C(=O)c2ccc(NC(=O)C3CCC3)cc2OC[C@@H](C)N(CC2CCCCC2)C[C@@H]1C,10.1 µM (active)
4,C[C@@H]1CN([C@H](C)CO)S(=O)(=O)c2ccc(-c3cccc(F)c3)cc2O[C@@H]1CN(C)S(=O)(=O)c1ccccc1,3.28 µM (active)
5,C[C@H]1CN([C@@H](C)CO)C(=O)Cc2cc(N(C)C)ccc2O[C@H]1CN(C)Cc1ccc(Cl)c(Cl)c1,40.2 µM (active)

# System: not listed separately
# Experiment: ZM109 Env clade C HIV-1 fusion inhibitors, dose response, HeLa effector, CEM target cells, luciferase, cherry-pick (AID 652058)
# Assay type: functional, cell-based
row,SMILES,AC50
1,C[C@H]1CN([C@@H](C)CO)S(=O)(=O)c2ccc(Br)cc2O[C@H]1CN(C)S(=O)(=O)c1ccc(F)cc1,3.04 µM (active)
2,CO[C@H]1CN(C)C(=O)c2ccc(NC(=O)C3CCC3)cc2OC[C@@H](C)N(CC2CCCCC2)C[C@@H]1C,3.18 µM (active)
3,C[C@@H]1CN([C@H](C)CO)S(=O)(=O)c2ccc(-c3cccc(F)c3)cc2O[C@@H]1CN(C)S(=O)(=O)c1ccccc1,2.78 µM (active)

# System: not listed separately
# Experiment: inhibitors of clade B AD8 Env fusion, dose response, cell-based, cherry-pick (AID 652062);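 also: luciferase signal from cell-cell fusion driven by HIV-1 clade B AD8 Env; potency is for inhibitors of fusion seen as a drop in luminescence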
# Assay type: functional
row,SMILES,AC50
1,C[C@H]1CN([C@@H](C)CO)S(=O)(=O)c2ccc(Br)cc2O[C@H]1CN(C)S(=O)(=O)c1ccc(F)cc1,29.7 µM (active)
2,CO[C@H]1CN(C)C(=O)c2ccc(NC(=O)C3CCC3)cc2OC[C@@H](C)N(CC2CCCCC2)C[C@@H]1C,19.9 µM (active)
3,C[C@@H]1CN([C@H](C)CO)S(=O)(=O)c2ccc(-c3cccc(F)c3)cc2O[C@@H]1CN(C)S(=O)(=O)c1ccccc1,31.6 µM (active)
